Source: PMC4965013, “Open Source Drug Discovery with the Malaria Box Compound Collection for Neglected Diseases and Beyond” (PLoS Pathogens, 2016)

Experiments:
[1] = system: P. falciparum 3D7 trophozoites; test: Metabolomic fingerprint profiling LC-MS; type: cell-based, Plasmodium falciparum; set-up: UDP-D-glucose / ADP-D-glucose: unit not given here; details: for Acetyllysine / N-acetyl-L-ornithine / N-carbamoyl-L-aspartate / NADPH / dAMP / dCMP / dTDP / dTMP / dTTP / dihydroorotate / orotate / DLH / DLS/SDL/SID / PD / PEE / PVNF / 3-phosphoglycerate / ADP-D-glucose / ATP / CDP / D-sedoheptulose-1/7-phosphate / FAD / GMP / NAD+ / NADP+ / Octoluse Bisphosphate / Pyroglutamic acid / UDP-D-glucose / UDP-D-glucuronate / UDP-N-acetyl-glucosamine / UDP / UMP / UTP / a-ketoglutarate / citrate/isocitrate / cytidine / dATP / dGMP/AMP / fumarate / glucose-1/6-phosphate / glycerate / guanine / guanosine / hypoxanthine / indole / inosine / nicotinate / ornithine / phosphoenolpyruvate / pyruvate / ribose-phosphate / sarcosine/alanine / sn-glycerol-3-phosphate / succinate/methylmalonic acid / uridine / xanthosine: S2 Table Metabolomics; for Acetyllysine: metabolite Acetyllysine; for N-acetyl-L-ornithine: metabolite N-acetyl-L-ornithine; for N-carbamoyl-L-aspartate: metabolite N-carbamoyl-L-aspartate; for NADPH: metabolite NADPH; for dAMP: metabolite dAMP; for dCMP: metabolite dCMP; for dTDP: metabolite dTDP; for dTMP: metabolite dTMP; for dTTP: metabolite dTTP; for dihydroorotate: metabolite dihydroorotate; for orotate: metabolite orotate; for DLH: peptide DLH; for DLS/SDL/SID: peptide DLS/SDL/SID; for PD: peptide PD; for PEE: peptide PEE; for PVNF: peptide PVNF; for 3-phosphoglycerate: metabolite 3-phosphoglycerate; for ADP-D-glucose: metabolite ADP-D-glucose; for ATP: metabolite ATP; for CDP: metabolite CDP; for CDP / D-sedoheptulose-1/7-phosphate / GMP / Octoluse Bisphosphate / UDP / UMP / UTP / citrate/isocitrate / dGMP/AMP / fumarate / glucose-1/6-phosphate / glycerate / guanine / guanosine / inosine / pyruvate / sarcosine/alanine / succinate/methylmalonic acid / uridine / xanthosine: change in metabolite level after compound treatment; for D-sedoheptulose-1/7-phosphate: metabolite D-sedoheptulose-1/7-phosphate; for FAD: metabolite FAD; for GMP: metabolite GMP; for NAD+: metabolite NAD+; for NADP+: metabolite NADP+; for Octoluse Bisphosphate: metabolite Octoluse Bisphosphate; for Pyroglutamic acid: metabolite Pyroglutamic acid; for UDP-D-glucose: metabolite UDP-D-glucose; for UDP-D-glucuronate: metabolite UDP-D-glucuronate; for UDP-N-acetyl-glucosamine: metabolite UDP-N-acetyl-glucosamine; for UDP: metabolite UDP; for UMP: metabolite UMP; for UTP: metabolite UTP; for a-ketoglutarate: metabolite a-ketoglutarate; for citrate/isocitrate: metabolite citrate/isocitrate; for cytidine: metabolite cytidine; for dATP: metabolite dATP; for dGMP/AMP: metabolite dGMP/AMP; for fumarate: metabolite fumarate; for glucose-1/6-phosphate: metabolite glucose-1/6-phosphate; for glycerate: metabolite glycerate; for guanine: metabolite guanine; for guanosine: metabolite guanosine; for hypoxanthine: metabolite hypoxanthine; for indole: metabolite indole; for inosine: metabolite inosine; for 2_3-Diphosphoglyceric acid / 4-phosphopantothenate / 6-phospho-D-gluconate / FMN / IMP / Pyrophosphate / Sedoheptoluse bisphosphate / cyclic-AMP / glutathione disulfide / lactate / myo-inositol: metabolite level change after treatment; for nicotinate: metabolite nicotinate; for ornithine: metabolite ornithine; for phosphoenolpyruvate: metabolite phosphoenolpyruvate; for pyruvate: metabolite pyruvate; for ribose-phosphate: metabolite ribose-phosphate; for sarcosine/alanine: metabolite sarcosine/alanine; for sn-glycerol-3-phosphate: metabolite sn-glycerol-3-phosphate; for succinate/methylmalonic acid: metabolite succinate/methylmalonic acid; for uridine: metabolite uridine; for xanthosine: metabolite xanthosine
[2] = system: P. falciparum; test: EC50 listed in S2 Table Metabolomics (used to set the concentration tested); type: cell-based; details: Plasmodium falciparum; EC50 used for Factor_XEC50 in metabolomics; read-out: EC50_nM

Structure (SMILES): CCCCCC(=O)N1c2ccccc2N=C2CC(c3ccc(OC)c(OC)c3)CC(O)=C2C1c1ccc(C(F)(F)F)cc1 (stereo not shown) [MMV085583]
- Acetyllysine [1]: -3.233
- N-acetyl-L-ornithine [1]: -2.906
- N-carbamoyl-L-aspartate [1]: -0.5597
- NADPH [1]: 1.284
- dAMP [1]: 0.2596
- dCMP [1]: -0.4552
- dTDP [1]: -0.3582
- dTMP [1]: -0.9265
- dTTP [1]: 0.1067
- dihydroorotate [1]: -0.6697
- orotate [1]: -1.058
- DLH [1]: -2.5
- DLS/SDL/SID [1]: -2.559
- PD [1]: -2.735
- PEE [1]: -2.9857
- PVNF [1]: -3.329
- 3-phosphoglycerate [1]: 0.3606
- ADP-D-glucose [1]: -0.0158
- ATP [1]: -0.07202
- CDP [1]: -0.3911
- D-sedoheptulose-1/7-phosphate [1]: -0.5433
- FAD [1]: -0.3185
- GMP [1]: -0.4734
- NAD+ [1]: -0.2717
- NADP+ [1]: 0.1968
- Octoluse Bisphosphate [1]: -0.2833
- Pyroglutamic acid [1]: -0.1555
- UDP-D-glucose [1]: -0.1587
- UDP-D-glucuronate [1]: -0.1055
- UDP-N-acetyl-glucosamine [1]: -0.2414
- UDP [1]: -0.8399
- UMP [1]: -0.6631
- UTP [1]: -0.1073
- a-ketoglutarate [1]: -0.8202
- citrate/isocitrate [1]: -0.2512
- cytidine [1]: -0.09635
- dATP [1]: 0.2253
- dGMP/AMP [1]: -0.1442
- fumarate [1]: -0.4715
- glucose-1/6-phosphate [1]: -0.3133
- glycerate [1]: -0.7263
- guanine [1]: -0.4303
- guanosine [1]: -0.4531
- hypoxanthine [1]: -0.4709
- indole [1]: -0.4645
- inosine [1]: -0.4523
- 2_3-Diphosphoglyceric acid [1]: 0.1524
- 4-phosphopantothenate [1]: -0.4091
- 6-phospho-D-gluconate [1]: -0.01182
- FMN [1]: -0.2086
- IMP [1]: -0.3529
- Pyrophosphate [1]: 0.1499
- Sedoheptoluse bisphosphate [1]: 0.0221
- cyclic-AMP [1]: -0.3292
- glutathione disulfide [1]: -0.6201
- lactate [1]: -0.8724
- myo-inositol [1]: -1.425
- nicotinate [1]: 0.07742
- ornithine [1]: 0.02649
- phosphoenolpyruvate [1]: 0.334
- pyruvate [1]: -0.3941
- ribose-phosphate [1]: -0.07903
- sarcosine/alanine [1]: -0.9167
- sn-glycerol-3-phosphate [1]: 0.1681
- succinate/methylmalonic acid [1]: -0.405
- uridine [1]: -0.7297
- xanthosine [1]: 0.125
- EC50 [2]: 237 nM

Structure (SMILES): COc1ccc(-c2cc3c(SCC(=O)Nc4cc(C(F)(F)F)ccc4Cl)nccn3n2)cc1 [MMV396679]
- Acetyllysine [1]: -0.1115
- N-acetyl-L-ornithine [1]: -0.02651
- N-carbamoyl-L-aspartate [1]: 3.992
- NADPH [1]: 0.255
- dAMP [1]: 0.01076
- dCMP [1]: -0.01731
- dTDP [1]: -0.9721
- dTMP [1]: -0.9985
- dTTP [1]: -1.02
- dihydroorotate [1]: 4.797
- orotate [1]: 0.864
- DLH [1]: -0.2125
- DLS/SDL/SID [1]: -0.04913
- PD [1]: -0.04215
- PEE [1]: -0.3501
- PVNF [1]: -0.2936
- 3-phosphoglycerate [1]: -0.0577
- ADP-D-glucose [1]: -0.06603
- ATP [1]: 0.1822
- CDP [1]: -0.644
- D-sedoheptulose-1/7-phosphate [1]: 0.2024
- FAD [1]: 0.03763
- GMP [1]: 0.3849
- NAD+ [1]: -0.01439
- NADP+ [1]: -0.06317
- Octoluse Bisphosphate [1]: -0.02018
- Pyroglutamic acid [1]: 0.2933
- UDP-D-glucose [1]: -0.1121
- UDP-D-glucuronate [1]: -0.02141
- UDP-N-acetyl-glucosamine [1]: -0.3213
- UDP [1]: -1.37
- UMP [1]: -0.7971
- UTP [1]: -1.261
- a-ketoglutarate [1]: 0.1314
- citrate/isocitrate [1]: 0.05797
- cytidine [1]: 0.1643
- dATP [1]: 0.3792
- dGMP/AMP [1]: -0.06069
- fumarate [1]: -0.2305
- glucose-1/6-phosphate [1]: 0.5016
- glycerate [1]: 0.4143
- guanine [1]: 0.4991
- guanosine [1]: 0.9003
- hypoxanthine [1]: 0.3227
- indole [1]: 0.2561
- inosine [1]: 0.1928
- 2_3-Diphosphoglyceric acid [1]: 0.1312
- 4-phosphopantothenate [1]: -0.2367
- 6-phospho-D-gluconate [1]: 0.186
- FMN [1]: -0.2039
- IMP [1]: -0.06535
- Pyrophosphate [1]: 0.04157
- Sedoheptoluse bisphosphate [1]: -0.03524
- cyclic-AMP [1]: -0.06553
- glutathione disulfide [1]: 0.06998
- lactate [1]: 0.2306
- myo-inositol [1]: 0.2632
- nicotinate [1]: 0.2615
- ornithine [1]: 0.183
- phosphoenolpyruvate [1]: -0.02867
- pyruvate [1]: -0.158
- ribose-phosphate [1]: -0.4444
- sarcosine/alanine [1]: 0.1483
- sn-glycerol-3-phosphate [1]: -0.1937
- succinate/methylmalonic acid [1]: -0.8703
- uridine [1]: -0.4231
- xanthosine [1]: 0.3074
- EC50 [2]: 89.9 nM
